Common to all, as to type: functional, cell-based
Assay [1] deals with BT-549. Kind of assay: Cytotoxicity against human BT549 cells assessed as growth inhibition after 72 hrs by SRB assay. In general terms: Sulforhodamine B stains cellular protein and so reports cell mass.
Assay [2] has as its system HCC70. As to the kind of experiment: Cytotoxicity against human HCC70 cells assessed as growth inhibition after 72 hrs by SRB assay.
Assay [3] relates to MDA-MB-468. Kind of assay: Cytotoxicity against human MDA-MB-468 cells assessed as growth inhibition after 72 hrs by SRB assay.
In assay [4] the test system is MDA-MB-231. Kind of assay: Cytotoxicity against human MDA-MB-231 cells assessed as growth inhibition after 72 hrs by SRB assay.

A value given as a limit tells only on which side of the number the result lay.

In general, IC50 refers to the concentration that gives 50% inhibition.

As to `CC1=C[C@H]2O[C@@H]3C[C@@H](OC(=O)/C=C\C=C\[C@@H](OCCC4=CC(=O)OC4)[C@@H](C)O)[C@](C)([C@@]2(CO)CC1)[C@@]31CO1`, the IC50 in assay [1] (bt-549), in assay [2] (hcc70), in assay [3] (mda-mb-468) and in assay [4] (mda-mb-231) was above 10000 nM throughout.

With `CC1=C[C@H]2O[C@@H]3C[C@@H](OC(=O)/C=C\C=C\[C@]4([C@H](C)O)OCC/C(=C\C(=O)O)[C@@H]4O)[C@](C)([C@@]2(CO)CC1)[C@@]31CO1`, the IC50 in assay [1] (bt-549) is 1800 nM; in assay [2] (hcc70), 7700 nM; in assay [3] (mda-mb-468), above 10000 nM; in assay [4] (mda-mb-231), 3600 nM.

Take `CC1=C[C@H]2O[C@@H]3C[C@H]4OC(=O)/C=C\C=C\[C@]5([C@H](C)O)OCC/C(=C\C(=O)OC[C@@]2(CC1)[C@]4(C)[C@@]31CO1)[C@H]5O`: the IC50 in assay [1] (bt-549) came to 1800 nM; in assay [2] (hcc70), 2200 nM; in assay [3] (mda-mb-468), 3400 nM; in assay [4] (mda-mb-231), 2000 nM.

As for `CC1=C[C@H]2O[C@@H]3C[C@H]4OC(=O)/C=C\C=C\[C@]5([C@H](C)O)OCC/C(=C\C(=O)OC[C@@]2(CC1)[C@]4(C)[C@@]31CO1)[C@@H]5O`, the IC50 turned out to be 0.3 nM in assay [1] (bt-549), 1 nM in assay [2] (hcc70), 3 nM in assay [3] (mda-mb-468) and 0.4 nM in assay [4] (mda-mb-231).

For the molecule `CC1=C[C@H]2O[C@@H]3C[C@@H](OC(=O)/C=C\C=C\[C@@H](OCCC4=CC(=O)OC4)[C@@H](C)O)[C@](C)([C@@]2(COC(=O)/C=C(\C)CCO)CC1)[C@@]31CO1`, the IC50 in assay [1] (bt-549) stood at 4 nM; in assay [2] (hcc70) it was 20 nM; in assay [3] (mda-mb-468), 80 nM; in assay [4] (mda-mb-231), 20 nM.

In the case of `C/C1=C\C(=O)OC[C@@]23CC[C@](C)(O)[C@H]4C[C@@]5(O)[C@@H](C[C@@H](OC(=O)/C=C\C=C\[C@H]([C@@H](C)O)OCC1)[C@]25C)O[C@H]43`, the IC50 was above 10000 nM in assay [1] (Homo sapiens, BT-549, 72 h); above 10000 nM in assay [2] (Homo sapiens, HCC70, 72 h); above 10000 nM in assay [3] (Homo sapiens, MDA-MB-468, 72 h); above 10000 nM in assay [4] (Homo sapiens, MDA-MB-231, 72 h).

As for `COC(=O)/C=C/C=C/[C@@H](OCC/C(C)=C/C(=O)OC[C@]12CCC(C)=C[C@H]1O[C@@H]1C[C@@H](O)[C@@]2(C)[C@@]12CO2)[C@@H](C)O`, the IC50 in assay [1] (bt-549), in assay [2] (hcc70), in assay [3] (mda-mb-468) and in assay [4] (mda-mb-231) was above 10000 nM in each case.

Take `COc1cccc2c1C(=O)c1c(O)c3c(c(O)c1C2=O)C[C@@](O)(C(=O)CO)C[C@@H]3O[C@H]1C[C@H](N)[C@H](O)[C@H](C)O1` [DOXORUBICIN]: the IC50 in assay [1] (Homo sapiens, BT-549, 72 h) was 10 nM; in assay [2] (Homo sapiens, HCC70, 72 h), 50 nM; in assay [3] (Homo sapiens, MDA-MB-468, 72 h), 70 nM; in assay [4] (Homo sapiens, MDA-MB-231, 72 h), 80 nM.

Take `COc1cc([C@@H]2c3cc4c(cc3[C@@H](O[C@@H]3O[C@@H]5CO[C@@H](C)O[C@H]5[C@H](O)[C@H]3O)[C@H]3COC(=O)[C@H]23)OCO4)cc(OC)c1O` [ETOPOSIDE]: the IC50 in assay [1] (Homo sapiens, BT-549, 72 h) came to 1800 nM; in assay [2] (Homo sapiens, HCC70, 72 h) it was 1800 nM; in assay [3] (Homo sapiens, MDA-MB-468, 72 h), 2100 nM; in assay [4] (Homo sapiens, MDA-MB-231, 72 h), 2300 nM.

`CC1=C[C@H]2O[C@@H]3C[C@H]4OC(=O)/C=C\C=C\[C@H]([C@@H](C)O)OCC/C(C)=C/C(=O)OC[C@@]2(CC1)[C@]4(C)[C@]31CO1` [RORIDIN E]: the IC50 in assay [1] (bt-549) is 0.02 nM; in assay [2] (hcc70) it was 0.02 nM; in assay [3] (mda-mb-468), 0.05 nM; in assay [4] (mda-mb-231) it was 0.03 nM.
